Data from patent publication US20250179061A1 (SIRONAX LTD., priority 2022, published 2025).

These compounds were tested on HT-29 cells (assay: HT-29 necroptosis cell viability assay (TNF-α/SMAC mimetic/zVAD-FMK, CellTiter-Glo)). Conditions: Homo sapiens, HT-29, HT-29 necroptosis cell viability assay; class symbols for IC50; read-out: Activity.
Assay type: cell-based
Procedure, shortened: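 Necroptosis was triggered by TNF-α (10 ng/ml), SMAC mimetic (6 μM) and zVAD-FMK (10 μM) in serum-free medium during 20 h compound exposure (10 concentrations, threefold steps) of HT-29 cells. IC50 from duplicate dose-responses uses CellTiter-Glo ATP luminescence as viability read-out.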

`Cc1nc(N2CC(C)(C#N)C2)sc1Cc1ccc(-n2ncn(Cc3c(F)cccc3F)c2=O)cc1` [Example 512, 1-(5-(4-(4-(2,6-difluorobenzyl)-5-oxo-4,5-dihydro-1H-1,2,4-triazol-1-yl)benzyl)-4-methylthiazol-2-yl)-3-methylazetidine-3-carbonitrile] and `Cc1cc(N2CC(C)(C#N)C2)nn1Cc1ccc(-n2ncn(Cc3c(F)cccc3F)c2=O)cc1` [Example 541, 1-(1-(4-(4-(2,6-difluorobenzyl)-5-oxo-4,5-dihydro-1H-1,2,4-triazol-1-yl)benzyl)-5-methyl-1H-pyrazol-3-yl)-3-methylazetidine-3-carbonitrile] cannot be ordered by IC50: less than 0.1 µM for the first, less than 0.1 µM for the second.

First: Cc1nc(N2CC(C)(N)C2)sc1C(C)c1ccc(-n2ncn(Cc3c(F)cccc3F)c2=O)cc1 (centres unmarked) [Example 513, 2-[4-[1-[2-(3-amino-3-methyl-azetidin-1-yl)-4-methyl-thiazol-5-yl]ethyl]phenyl]-4-[(2,6-difluorophenyl)methyl]-1,2,4-triazol-3-one; 2,2,2-trifluoroacetic acid]
Second: Cc1nc(N2CC(C)(NC(=O)OC(C)(C)C)C2)sc1C(C)c1ccc(-n2ncn(Cc3c(F)cccc3F)c2=O)cc1 (centres unmarked) [Example 514, tert-butyl (1-(5-(1-(4-(4-(2,6-difluorobenzyl)-5-oxo-4,5-dihydro-1H-1,2,4-triazol-1-yl)phenyl)ethyl)-4-methylthiazol-2-yl)-3-methylazetidin-3-yl)carbamate]
The IC50 of the first is higher: 0.1 to 1 µM for the first, less than 0.1 µM for the second.

`Cc1nc(N2CC(C)(NC(=O)OC(C)(C)C)C2)sc1C(C)(O)c1ccc(-n2ncn(Cc3c(F)cccc3F)c2=O)cc1` (centres unmarked) [Example 516, tert-butyl (1-(5-(1-(4-(4-(2,6-difluorobenzyl)-5-oxo-4,5-dihydro-1H-1,2,4-triazol-1-yl)phenyl)-1-hydroxyethyl)-4-methylthiazol-2-yl)-3-methylazetidin-3-yl)carbamate] and `Cc1c(N2CC(C)(NC(=O)OC(C)(C)C)C2)ncn1Cc1ccc(-n2ncn(Cc3c(F)cccc3F)c2=O)cc1` [Example 538, tert-butyl (1-(1-(4-(4-(2,6-difluorobenzyl)-5-oxo-4,5-dihydro-1H-1,2,4-triazol-1-yl)benzyl)-5-methyl-1H-imidazol-4-yl)-3-methylazetidin-3-yl)carbamate] cannot be ordered by IC50: less than 0.1 µM for the first, less than 0.1 µM for the second.

`CCOC1CN(c2nn(C)c(Oc3ccc(-n4ncn(Cc5c(F)cccc5F)c4=O)cc3)c2N)C1` [Example 517, 2-(4-((4-amino-3-(3-ethoxyazetidin-1-yl)-1-methyl-1H-pyrazol-5-yl)oxy)phenyl)-4-(2,6-difluorobenzyl)-2,4-dihydro-3H-1,2,4-triazol-3-one] and `Cc1ncc(C#N)cc1Oc1ccc(-n2ncn(Cc3c(F)cccc3F)c2=O)cc1` [Example 518, 5-(4-(4-(2,6-difluorobenzyl)-5-oxo-4,5-dihydro-1H-1,2,4-triazol-1-yl)phenoxy)-6-methylnicotinonitrile] fall in the same range of IC50: 1 to 10 µM for the first, 1 to 10 µM for the second.

`CC(C)(C)CC(=O)Nc1cc(Oc2ccc(-n3ncn(Cc4c(F)cccc4F)c3=O)cc2)ccn1` [Example 519, N-[4-[4-[4-[(2,6-difluorophenyl)methyl]-5-oxo-1,2,4-triazol-1-yl]phenoxy]-2-pyridyl]-3,3-dimethyl-butanamide] and `CC(=O)Nc1cc(Oc2ccc(-n3ncn(Cc4c(F)cccc4F)c3=O)cc2)ccn1` [Example 521, N-[4-[4-[4-[(2,6-difluorophenyl)methyl]-5-oxo-1,2,4-triazol-1-yl]phenoxy]-2-pyridyl]acetamide] fall in the same range of IC50: 0.1 to 1 µM for the first, 0.1 to 1 µM for the second.

Compared with `O=C(CC1CC1)Nc1cc(Oc2ccc(-n3ncn(Cc4c(F)cccc4F)c3=O)cc2)ccn1` [Example 520, 2-cyclopropyl-N-[4-[4-[4-[(2,6-difluorophenyl)methyl]-5-oxo-1,2,4-triazol-1-yl]phenoxy]-2-pyridyl]acetamide], `O=c1n(Cc2c(F)cccc2F)cnn1-c1ccc(Oc2ccnc(NCC3CC3)c2)cc1` [Example 524, 2-(4-((2-((cyclopropylmethyl)amino)pyridin-4-yl)oxy)phenyl)-4-(2,6-difluorobenzyl)-2,4-dihydro-3H-1,2,4-triazol-3-one] is lower in IC50: 0.1 to 1 µM for the first, less than 0.1 µM for the second. The second is the more potent here.

First: O=C1CC(n2ncn(Cc3ccccc3)c2=O)CCN1Cc1ccccc1 (centres unmarked) [Example 522, 1-benzyl-4-(4-benzyl-5-oxo-4,5-dihydro-1H-1,2,4-triazol-1-yl)piperidin-2-one]
Second: Cc1c(I)ncn1Cc1ccc(-n2ncn(Cc3c(F)cccc3F)c2=O)cc1 [Example 539, 4-(2,6-difluorobenzyl)-2-(4-((4-iodo-5-methyl-1H-imidazol-1-yl)methyl)phenyl)-2,4-dihydro-3H-1,2,4-triazol-3-one]
The IC50 of the first is higher: greater than 10 µM for the first, less than 0.1 µM for the second. The second is the more potent here.

`O=c1n(Cc2c(F)cccc2F)cnn1-c1ccc(Oc2ccnc(NC3CC3)c2)cc1` [Example 523, 2-(4-((2-(cyclopropylamino)pyridin-4-yl)oxy)phenyl)-4-(2,6-difluorobenzyl)-2,4-dihydro-3H-1,2,4-triazol-3-one] and `O=c1n(Cc2c(F)cccc2F)cnn1-c1ccc(Oc2ccnc(NC3CC4(COC4)C3)c2)cc1` [Example 530, 2-(4-((2-((2-oxaspiro[3.3]heptan-6-yl)amino)pyridin-4-yl)oxy)phenyl)-4-(2,6-difluorobenzyl)-2,4-dihydro-3H-1,2,4-triazol-3-one] fall in the same range of IC50: 0.1 to 1 µM for the first, 0.1 to 1 µM for the second.

`O=c1n(Cc2c(F)cccc2F)cnn1-c1ccc(Oc2ccnc(N3CCCC3)c2)cc1` [Example 525, 4-(2,6-difluorobenzyl)-2-(4-((2-(pyrrolidin-1-yl)pyridin-4-yl)oxy)phenyl)-2,4-dihydro-3H-1,2,4-triazol-3-one] and `O=c1n(Cc2c(F)cccc2F)cnn1-c1ccc(Oc2ccnc(N3CCCCC3)c2)cc1` [Example 529, 4-(2,6-difluorobenzyl)-2-(4-((2-(piperidin-1-yl)pyridin-4-yl)oxy)phenyl)-2,4-dihydro-3H-1,2,4-triazol-3-one] fall in the same range of IC50: 0.1 to 1 µM for the first, 0.1 to 1 µM for the second.

Compared with `O=c1n(Cc2c(F)cccc2F)cnn1-c1ccc(Oc2ccnc(N3CCOCC3)c2)cc1` [Example 526, 4-(2,6-difluorobenzyl)-2-(4-((2-morpholinopyridin-4-yl)oxy)phenyl)-2,4-dihydro-3H-1,2,4-triazol-3-one], `O=c1n(Cc2c(F)cccc2F)cnn1-c1ccc(Oc2ccnc(N3CC4(COC4)C3)c2)cc1` [Example 527, 2-(4-((2-(2-oxa-6-azaspiro[3.3]heptan-6-yl)pyridin-4-yl)oxy)pheny)-4-(2,6-difluorobenzyl)-2,4-dihydro-3H-1,2,4-triazol-3-one] is lower in IC50: 1 to 10 µM for the first, 0.1 to 1 µM for the second.

Compared with `CCC1(Nc2cc(Oc3ccc(-n4ncn(Cc5c(F)cccc5F)c4=O)cc3)ccn2)CC1` [Example 528, 4-(2,6-difluorobenzyl)-2-(4-((2-((1-ethylcyclopropyl)amino)pyridin-4-yl)oxy)phenyl)-2,4-dihydro-3H-1,2,4-triazol-3-one], `CC1(Nc2cc(Oc3ccc(-n4ncn(Cc5c(F)cccc5F)c4=O)cc3)ccn2)CC1` [Example 532, 4-(2,6-difluorobenzyl)-2-(4-((2-((1-methylcyclopropyl)amino)pyridin-4-yl)oxy)phenyl)-2,4-dihydro-3H-1,2,4-triazol-3-one] is lower in IC50: 0.1 to 1 µM for the first, less than 0.1 µM for the second.

First: CC1(Nc2cc(Oc3ccc(-n4ncn(Cc5c(F)cccc5F)c4=O)cc3)ccn2)COC1 [Example 531, 4-(2,6-difluorobenzyl)-2-(4-((2-((3-methyloxetan-3-yl)amino)pyridin-4-yl)oxy)phenyl)-2,4-dihydro-3H-1,2,4-triazol-3-one]
Second: CC(C)(O)C#Cc1cc(Oc2ccc(-n3ncn(Cc4c(F)cccc4F)c3=O)cc2)ccn1 [Example 535, 4-(2,6-difluorobenzyl)-2-(4-((2-(3-hydroxy-3-methylbut-1-yn-1-yl)pyridin-4-yl)oxy)phenyl)-2,4-dihydro-3H-1,2,4-triazol-3-one]
The IC50 of the first is higher: greater than 10 µM for the first, 0.1 to 1 µM for the second. The second is the more potent here.

`CCOC(=O)c1ocnc1Oc1ccc(-n2ncn(Cc3c(F)cccc3F)c2=O)cc1F` [Example 534, ethyl 4-(4-(4-(2,6-difluorobenzyl)-5-oxo-4,5-dihydro-1H-1,2,4-triazol-1-yl)-2-fluorophenoxy)oxazole-5-carboxylate] and `Cc1ncn(Cc2ccc(-n3ncn(Cc4c(F)cccc4F)c3=O)cc2)c1I` [Example 540, 4-(2,6-difluorobenzyl)-2-(4-((5-iodo-4-methyl-1H-imidazol-1-yl)methyl)phenyl)-2,4-dihydro-3H-1,2,4-triazol-3-one] cannot be ordered by IC50: less than 0.1 µM for the first, less than 0.1 µM for the second.

Compared with `O=c1n(Cc2c(F)cccc2F)cnn1-c1ccc(C2=CCOCC2)cc1` [Example 536, 4-(2,6-difluorobenzyl)-2-(4-(3,6-dihydro-2H-pyran-4-yl)phenyl)-2,4-dihydro-3H-1,2,4-triazol-3-one], `Cn1nccc1Cc1ccc(-n2ncn(Cc3c(F)cccc3F)c2=O)cc1` [Example 545, 4-(2,6-difluorobenzyl)-2-(4-((1-methyl-1H-pyrazol-5-yl)methyl)phenyl)-2,4-dihydro-3H-1,2,4-triazol-3-one] is lower in IC50: 1 to 10 µM for the first, less than 0.1 µM for the second. The second is the more potent here.

Compared with `Cc1cc(N2CC(C)(N)C2)nn1Cc1ccc(-n2ncn(Cc3c(F)cccc3F)c2=O)cc1` [Example 537, 2-(4-((3-(3-amino-3-methylazetidin-1-yl)-5-methyl-1H-pyrazol-1-yl)methyl)phenyl)-4-(2,6-difluorobenzyl)-2,4-dihydro-3H-1,2,4-triazol-3-one], `Cc1nc(C2=CCCC2)sc1Oc1ccc(-n2ncn(Cc3c(F)cccc3F)c2=O)cc1` [Example 546, 2-(4-((2-(cyclopent-1-en-1-yl)-4-methylthiazol-5-yl)oxy)phenyl)-4-(2,6-difluorobenzyl)-2,4-dihydro-3H-1,2,4-triazol-3-one] is lower in IC50: 1 to 10 µM for the first, less than 0.1 µM for the second. The second is the more potent here.

`Cc1nc(C2=CCNC2)sc1Oc1ccc(-n2ncn(Cc3c(F)cccc3F)c2=O)cc1` [Example 542, 4-(2,6-difluorobenzyl)-2-(4-((2-(2,5-dihydro-1H-pyrrol-3-yl)-4-methylthiazol-5-yl)oxy)phenyl)-2,4-dihydro-3H-1,2,4-triazol-3-one] and `Cc1nc(-c2ccnn2C)sc1Oc1ccc(-n2ncn(Cc3c(F)cccc3F)c2=O)cc1` [Example 544, 4-(2,6-difluorobenzyl)-2-(4-((4-methyl-2-(1-methyl-1H-pyrazol-5-yl)thiazol-5-yl)oxy)phenyl)-2,4-dihydro-3H-1,2,4-triazol-3-one] cannot be ordered by IC50: less than 0.1 µM for the first, less than 0.1 µM for the second.
